According to BindingDB's records for doi:10.7270/Q28G8J4C (Broad Institute, 2009):
Where a name gives a salt, the structure may show the parent alone.

These compounds were tested against T1, POsterior Segregation (Caenorhabditis elegans, UniProt G5EF15) (assay: inhibitors of POS-1/mex-3 RNA binding, dose response, biochemical, fluorescence polarization (AID 1964)).
T1 sequence (G5EF15 whole entry): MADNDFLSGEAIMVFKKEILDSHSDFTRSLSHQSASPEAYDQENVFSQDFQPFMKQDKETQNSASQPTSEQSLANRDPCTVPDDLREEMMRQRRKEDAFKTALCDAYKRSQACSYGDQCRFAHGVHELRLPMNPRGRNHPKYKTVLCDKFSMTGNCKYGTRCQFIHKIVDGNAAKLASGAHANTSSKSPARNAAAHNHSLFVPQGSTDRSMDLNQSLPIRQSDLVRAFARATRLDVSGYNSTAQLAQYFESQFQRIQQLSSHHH

SMILES | EC50 [µM]
C[C@H]1c2cccc(O)c2C(=O)C2C(=O)[C@]3(O)C(=O)C(C(N)=O)C(=O)[C@@H](N(C)C)C3C(O)C21 (stereo partly drawn) [(2Z,4S,5S,6R,12aS)-2-[amino(hydroxy)methylidene]-4-(dimethylamino)-5,10,11,12a-tetrahydroxy-6-methyl-4a,5,5a,6-tetrahydro-4H-tetracene-1,3,12-trione;ethanol;hydrate;hydrochloride] | > 300
CC(C)c1ccc(C2C(C#N)=C3Sc4ccccc4N3C(=N)C2C#N)cc1 (centres undefined) [1-amino-3-(4-propan-2-ylphenyl)-3H-pyrido[2,1-b][1,3]benzothiazole-2,4-dicarbonitrile] | 33
CC1CCC2=C(C#N)C(=N)C(C#N)(C#N)C(c3cccs3)C2C1 (centres undefined) [2-amino-6-methyl-4-(2-thienyl)-4a,5,6,7-tetrahydro-4H-naphthalene-1,3,3-tricarbonitrile] | 21.7
COc1cc(C2C3=C(CCCC3=O)OC(=N)C2C#N)cc(OC)c1OC(=O)N1CCOCC1 (centres undefined) [4-(2-amino-3-cyano-5-oxo-5,6,7,8-tetrahydro-4H-chromen-4-yl)-2,6-dimethoxyphenyl morpholine-4-carboxylate] | > 300
Fc1ccc(C2=Nc3ncnn3C(c3ccco3)C2)cc1 (centres undefined) [5-(4-fluorophenyl)-7-(2-furanyl)-1,7-dihydro-[1,2,4]triazolo[1,5-a]pyrimidine] | 14.7
O=C(NN=Cc1c(O)n(-c2ccccc2)c(=S)[nH]c1=O)c1ccc(O)cc1 [N'-[(1Z)-(4,6-dioxo-1-phenyl-2-thioxohexahydropyrimidin-5-yl)methylene]-4-hydroxybenzohydrazide] | > 300
CN1CCC2=C(C#N)C(=N)C(C#N)(C#N)C(c3cccc(Cl)c3Cl)C2C1 (centres undefined) [6-azanyl-8-[2,3-bis(chloranyl)phenyl]-2-methyl-1,3,8,8a-tetrahydroisoquinoline-5,7,7-tricarbonitrile] | 14.4
O=C(NN=CC1=CC(=O)C(=O)CC1)NN=CC1=CC(=O)C(=O)CC1 [1,3-bis[[(Z)-(3-hydroxy-4-oxocyclohexa-2,5-dien-1-ylidene)methyl]amino]urea] | 16.2
C=CCSc1nnc(N2C(=O)C(=O)C(C(=O)c3ccco3)C2c2ccc(F)cc2)s1 (centres undefined) [1-[5-(allylthio)-1,3,4-thiadiazol-2-yl]-5-(4-fluorophenyl)-4-(2-furoyl)-3-hydroxy-3-pyrrolin-2-one] | 114
O=C1N=c2ccccc2=C1NNc1ccc(F)cc1 | > 300
CN(C)CCCNC=C1C(=O)NC(=O)N(CCc2ccc(F)cc2)C1=O [(5E)-5-[[3-(dimethylamino)propylamino]methylene]-1-[2-(4-fluorophenyl)ethyl]barbituric acid] | > 300
Cc1cc(=O)[nH]c(N=NCc2ccc(O)c(O)c2)n1 [MLS001194906] | 99.3
CSc1ccc(C2C(C(=O)c3ccco3)C(=O)C(=O)N2c2nnc(SC)s2)cc1 (centres undefined) [3-(furan-2-carbonyl)-4-hydroxy-2-(4-methylsulfanylphenyl)-1-(5-methylsulfanyl-1,3,4-thiadiazol-2-yl)-2H-pyrrol-5-one] | 6.79
Cc1[nH]c2ccccc2c1/C=C1\N=C(c2ccc(F)cc2)OC1=O [2-(4-fluorophenyl)-4-[(2-methyl-1H-indol-3-yl)methylene]-1,3-oxazol-5(4H)-one] | > 300
COc1ccccc1-n1c(O)c2n(-c3ccc(C)cc3)[nH]c(C(=O)c3ccccc3)c-2c1=O | 13.7
CC1(C)CC(=O)C2=C(C1)OC(=N)C(C#N)C2c1cccc(OC(=O)c2ccco2)c1 (centres undefined) [2-furancarboxylic acid [3-(2-amino-3-cyano-7,7-dimethyl-5-oxo-6,8-dihydro-4H-1-benzopyran-4-yl)phenyl] ester] | > 300
COc1cccc(C2C3=C(CC(c4ccco4)CC3=O)OC(=N)C2C#N)c1OCc1ccc(F)cc1 (centres undefined) [SMR000021029] | > 300
O=C1N=c2ccccc2=C1NNc1cccc(Cl)c1 [(3E)-1H-indole-2,3-dione 3-[(3-chlorophenyl)hydrazone]] | 125
N#CC1C(=N)Oc2ccc3ccc(O)cc3c2C1c1ccsc1 (centres undefined) [3-amino-9-hydroxy-1-(3-thienyl)-1H-benzo[f]chromene-2-carbonitrile] | 76.1
